Literature values, collected in patent publication US20030130231A1, “2:1 Complex of beta- or gamma-cyclodextrin and alpha-tocopherol” (WACKER-CHEMIE GmbH, priority 2002, published 2003).
Where two headings read alike, the source gives them in different places.

Tests used:
[1] = cited from earlier work
[2] = cited from earlier work; remark: listed apart in the source

Cc1c(C)c2c(c(C)c1O)CC[C@@](C)(CCC[C@H](C)CCC[C@H](C)CCCC(C)C)O2 [α-tocopherol]
solubility in water [1]: insoluble in water | can be kept in the original packaging ([2]; stored at 5° C.): up to 24 months | can be kept in the original packaging ([2]; stored at room temperature): ≤ 12 months
